Measured values as given in patent US20250255867A1 (Kadmon Corporation, LLC, priority 2022, published 2025).

Details: Cohort 2 200 mg BID
Protocol: All responses were assessed by the investigators.
Reported Adverse Events. […] All-cause mortality data collected during the study were assessed for all enrolled participants. Disease progression related death was not reported as AE.
Number of Participants With Treatment-emergent Adverse Events (TEAEs), and Treatment-emergent Serious Adverse Events (TESAEs). […] TEAEs included both SAEs and non-SAEs. […] Analysis was performed on safety population which included all participants who received at least 1 dose of study medication.

CC(C)NC(=O)COc1cccc(-c2nc(Nc3ccc4[nH]ncc4c3)c3ccccc3n2)c1 [Belumosudil, 2-{3-[4-(1H-indazol-5-ylamino)-2-quinazolinyl]phenoxy}-N-(propan-2-yl) acetamide]
Conjunctivitis: Affected/At Risk (%): (6.25%) | Constipation: # Events: 1 | Constipation: Affected/At Risk: 1/16 | Constipation: Affected/At Risk (%): (6.25%) | Contrast media allergy: # Events: 2 | Contrast media allergy: Affected/At Risk: 2/16 | Contrast media allergy: Affected/At Risk (%): (12.5%) | Contusion: # Events: 2 | Contusion: Affected/At Risk: 2/16 | Contusion: Affected/At Risk (%): (12.5%) | Corneal abrasion: # Events: 0 | Corneal abrasion: Affected/At Risk: 0/16 | Corneal abrasion: Affected/At Risk (%): (0%) | Corneal infection: # Events: 2 | Corneal infection: Affected/At Risk: 1/16 | Corneal infection: Affected/At Risk (%): (6.25%) | Cough: # Events: 5 | Cough: Affected/At Risk: 4/16 | Cough: Affected/At Risk (%): (25%) | Decreased appetite: # Events: 2 | Decreased appetite: Affected/At Risk: 2/16 | Decreased appetite: Affected/At Risk (%): (12.5%) | Dehydration: # Events: 4 | Dehydration: Affected/At Risk: 3/16 | Dehydration: Affected/At Risk (%): (18.75%) | Depression: # Events: 4 | Depression: Affected/At Risk: 4/16 | Depression: Affected/At Risk (%): (25%) | Diarrhoea: # Events: 10 | Diarrhoea: Affected/At Risk: 5/16 | Diarrhoea: Affected/At Risk (%): (31.25%) | Dizziness: # Events: 4 | Dizziness: Affected/At Risk: 1/16 | Dizziness: Affected/At Risk (%): (6.25%) | Drug eruption: # Events: 1 | Drug eruption: Affected/At Risk: 1/16 | Drug eruption: Affected/At Risk (%): (6.25%) | Dry eye: # Events: 4 | Dry eye: Affected/At Risk: 4/16 | Dry eye: Affected/At Risk (%): (25%) | Dry skin: # Events: 0 | Dry skin: Affected/At Risk: 0/16 | Dry skin: Affected/At Risk (%): (0%) | Dyspepsia: # Events: 2 | Dyspepsia: Affected/At Risk: 2/16 | Dyspepsia: Affected/At Risk (%): (12.5%) | Dysphagia: # Events: 4 | Dysphagia: Affected/At Risk: 3/16 | Dysphagia: Affected/At Risk (%): (18.75%) | Dyspnoea exertional: # Events: 0 | Dyspnoea exertional: Affected/At Risk: 0/16 | Dyspnoea exertional: Affected/At Risk (%): (0%) | Dyspnoea: # Events: 7 | Dyspnoea: Affected/At Risk: 5/16 | Dyspnoea: Affected/At Risk (%): (31.25%) | Embolism: # Events: 0 | Embolism: Affected/At Risk: 0/16 | Embolism: Affected/At Risk (%): (0%) | Enamel anomaly: # Events: 1 | Enamel anomaly: Affected/At Risk: 1/16 | Enamel anomaly: Affected/At Risk (%): (6.25%) | Epidural lipomatosis: # Events: 0 | Epidural lipomatosis: Affected/At Risk: 0/16 | Epidural lipomatosis: Affected/At Risk (%): (0%) | Epstein-Barr virus infection: # Events: 0 | Epstein-Barr virus infection: Affected/At Risk: 0/16 | Epstein-Barr virus infection: Affected/At Risk (%): (0%) | Erectile dysfunction: # Events: 0 | Erectile dysfunction: Affected/At Risk: 0/16 | Erectile dysfunction: Affected/At Risk (%): (0%) | Eye irritation: # Events: 0 | Eye irritation: Affected/At Risk: 0/16 | Eye irritation: Affected/At Risk (%): (0%) | Eye pain: # Events: 4 | Eye pain: Affected/At Risk: 2/16 | Eye pain: Affected/At Risk (%): (12.5%) | Eye pruritus: # Events: 1 | Eye pruritus: Affected/At Risk: 1/16 | Eye pruritus: Affected/At Risk (%): (6.25%) | Fall: # Events: 1 | Fall: Affected/At Risk: 1/16 | Fall: Affected/At Risk (%): (6.25%) | Fatigue: # Events: 7 | Fatigue: Affected/At Risk: 3/16 | Fatigue: Affected/At Risk (%): (18.75%) | Flatulence: # Events: 2 | Flatulence: Affected/At Risk: 1/16 | Flatulence: Affected/At Risk (%): (6.25%) | Flushing: # Events: 1 | Flushing: Affected/At Risk: 1/16 | Flushing: Affected/At Risk (%): (6.25%) | Fungal infection: # Events: 0 | Fungal infection: Affected/At Risk: 0/16 | Fungal infection: Affected/At Risk (%): (0%) | Gamma-glutamyltransferase increased: # Events: 4 | Gamma-glutamyltransferase increased: Affected/At Risk: 4/16 | Gamma-glutamyltransferase increased: Affected/At Risk (%): (25%) | Gastric ulcer: # Events: 1 | Gastric ulcer: Affected/At Risk: 1/16 | Gastric ulcer: Affected/At Risk (%): (6.25%) | Gastrooesophageal reflux disease: # Events: 1 | Gastrooesophageal reflux disease: Affected/At Risk: 1/16 | Gastrooesophageal reflux disease: Affected/At Risk (%): (6.25%) | Generalised oedema: # Events: 0 | Generalised oedema: Affected/At Risk: 0/16 | Generalised oedema: Affected/At Risk (%): (0%) | Genital infection fungal: # Events: 1 | Genital infection fungal: Affected/At Risk: 1/16 | Genital infection fungal: Affected/At Risk (%): (6.25%) | Glaucoma: # Events: 1 | Glaucoma: Affected/At Risk: 1/16 | Glaucoma: Affected/At Risk (%): (6.25%) | Glucose urine present: # Events: 0 | Glucose urine present: Affected/At Risk: 0/16 | Glucose urine present: Affected/At Risk (%): (0%) | Graft versus host disease in gastrointestinal tract: # Events: 0 | Graft versus host disease in gastrointestinal tract: Affected/At Risk: 0/16 | Graft versus host disease in gastrointestinal tract: Affected/At Risk (%): (0%) | Gynaecomastia: # Events: 1 | Gynaecomastia: Affected/At Risk: 1/16 | Gynaecomastia: Affected/At Risk (%): (6.25%) | Haematuria: # Events: 1 | Haematuria: Affected/At Risk: 1/16 | Haematuria: Affected/At Risk (%): (6.25%) | Hair growth abnormal: # Events: 0 | Hair growth abnormal: Affected/At Risk: 0/16 | Hair growth abnormal: Affected/At Risk (%): (0%) | Headache: # Events: 3 | Headache: Affected/At Risk: 3/16 | Headache: Affected/At Risk (%): (18.75%) | Hodgkin's disease recurrent: # Events: 0 | Hodgkin's disease recurrent: Affected/At Risk: 0/16 | Hodgkin's disease recurrent: Affected/At Risk (%): (0%) | Hordeolum: # Events: 0 | Hordeolum: Affected/At Risk: 0/16 | Hordeolum: Affected/At Risk (%): (0%) | Hot flush: # Events: 0 | Hot flush: Affected/At Risk: 0/16 | Hot flush: Affected/At Risk (%): (0%) | Hyperglycemia: # Events: 0 | Hyperglycemia: Affected/At Risk: 0/16 | Hyperglycemia: Affected/At Risk (%): (0%) | Hyperhidrosis: # Events: 1 | Hyperhidrosis: Affected/At Risk: 1/16 | Hyperhidrosis: Affected/At Risk (%): (6.25%) | Hyperkalaemia: # Events: 2 | Hyperkalaemia: Affected/At Risk: 2/16 | Hyperkalaemia: Affected/At Risk (%): (12.5%) | Hypertension: # Events: 5 | Hypertension: Affected/At Risk: 2/16 | Hypertension: Affected/At Risk (%): (12.5%) | Hyperthyroidism: # Events: 1 | Hyperthyroidism: Affected/At Risk: 1/16 | Hyperthyroidism: Affected/At Risk (%): (6.25%) | Hypertriglyceridaemia: # Events: 1 | Hypertriglyceridaemia: Affected/At Risk: 1/16 | Hypertriglyceridaemia: Affected/At Risk (%): (6.25%) | Hyperuricaemia: # Events: 2 | Hyperuricaemia: Affected/At Risk: 1/16 | Hyperuricaemia: Affected/At Risk (%): (6.25%) | Hypoaesthesia: # Events: 0 | Hypoaesthesia: Affected/At Risk: 0/16 | Hypoaesthesia: Affected/At Risk (%): (0%) | Hypocalcaemia: # Events: 4 | Hypocalcaemia: Affected/At Risk: 1/16 | Hypocalcaemia: Affected/At Risk (%): (6.25%) | Hypogonadism: # Events: 0 | Hypogonadism: Affected/At Risk: 0/16 | Hypogonadism: Affected/At Risk (%): (0%) | Hypokalaemia: # Events: 3 | Hypokalaemia: Affected/At Risk: 2/16 | Hypokalaemia: Affected/At Risk (%): (12.5%) | Hypomagnesaemia: # Events: 1 | Hypomagnesaemia: Affected/At Risk: 1/16 | Hypomagnesaemia: Affected/At Risk (%): (6.25%) | Hyponatraemia: # Events: 0 | Hyponatraemia: Affected/At Risk: 0/16 | Hyponatraemia: Affected/At Risk (%): (0%) | Hypophosphataemia: # Events: 1 | Hypophosphataemia: Affected/At Risk: 1/16 | Hypophosphataemia: Affected/At Risk (%): (6.25%) | Hypothermia: # Events: 1 | Hypothermia: Affected/At Risk: 1/16 | Hypothermia: Affected/At Risk (%): (6.25%) | Hypothyroidism: # Events: 2 | Hypothyroidism: Affected/At Risk: 1/16 | Hypothyroidism: Affected/At Risk (%): (6.25%) | Hypoxia: # Events: 5 | Hypoxia: Affected/At Risk: 2/16 | Hypoxia: Affected/At Risk (%): (12.5%) | Impaired healing: # Events: 0 | Impaired healing: Affected/At Risk: 0/16 | Impaired healing: Affected/At Risk (%): (0%) | Influenza like illness: # Events: 2 | Influenza like illness: Affected/At Risk: 1/16 | Influenza like illness: Affected/At Risk (%): (6.25%) | Influenza: # Events: 2 | Influenza: Affected/At Risk: 1/16 | Influenza: Affected/At Risk (%): (6.25%) | Insomnia: # Events: 0 | Insomnia: Affected/At Risk: 0/16 | Insomnia: Affected/At Risk (%): (0%) | Irritability: # Events: 0 | Irritability: Affected/At Risk: 0/16 | Irritability: Affected/At Risk (%): (0%) | Joint range of motion decreased: # Events: 1 | Joint range of motion decreased: Affected/At Risk: 1/16 | Joint range of motion decreased: Affected/At Risk (%): (6.25%) | Lacrimation increased: # Events: 1 | Lacrimation increased: Affected/At Risk: 1/16 | Lacrimation increased: Affected/At Risk (%): (6.25%) | Leukaemia recurrent: # Events: 0 | Leukaemia recurrent: Affected/At Risk: 0/16 | Leukaemia recurrent: Affected/At Risk (%): (0%) | Leukocytosis: # Events: 0 | Leukocytosis: Affected/At Risk: 0/16 | Leukocytosis: Affected/At Risk (%): (0%) | Ligament sprain: # Events: 0 | Ligament sprain: Affected/At Risk: 0/16 | Ligament sprain: Affected/At Risk (%): (0%) | Limb injury: # Events: 0 | Limb injury: Affected/At Risk: 0/16 | Limb injury: Affected/At Risk (%): (0%) | Macular degeneration: # Events: 1 | Macular degeneration: Affected/At Risk: 1/16 | Macular degeneration: Affected/At Risk (%): (6.25%) | Migraine: # Events: 1 | Migraine: Affected/At Risk: 1/16 | Migraine: Affected/At Risk (%): (6.25%) | Muscle spasms: # Events: 0 | Muscle spasms: Affected/At Risk: 0/16 | Muscle spasms: Affected/At Risk (%): (0%) | Muscle spasticity: # Events: 0 | Muscle spasticity: Affected/At Risk: 0/16 | Muscle spasticity: Affected/At Risk (%): (0%) | Muscular weakness: # Events: 1 | Muscular weakness: Affected/At Risk: 1/16 | Muscular weakness: Affected/At Risk (%): (6.25%) | Musculoskeletal chest pain: # Events: 0 | Musculoskeletal chest pain: Affected/At Risk: 0/16 | Musculoskeletal chest pain: Affected/At Risk (%): (0%) | Myalgia: # Events: 1 | Myalgia: Affected/At Risk: 1/16 | Myalgia: Affected/At Risk (%): (6.25%) | Nail disorder: # Events: 0 | Nail disorder: Affected/At Risk: 0/16 | Nail disorder: Affected/At Risk (%): (0%) | Nausea: # Events: 6 | Nausea: Affected/At Risk: 4/16 | Nausea: Affected/At Risk (%): (25%) | Neck pain: # Events: 0 | Neck pain: Affected/At Risk: 0/16 | Neck pain: Affected/At Risk (%): (0%) | Nephrotic syndrome: # Events: 1 | Nephrotic syndrome: Affected/At Risk: 1/16 | Nephrotic syndrome: Affected/At Risk (%): (6.25%) | Neuropathy peripheral: # Events: 1 | Neuropathy peripheral: Affected/At Risk: 1/16 | Neuropathy peripheral: Affected/At Risk (%): (6.25%) | Neutrophil count decreased: # Events: 0 | Neutrophil count decreased: Affected/At Risk: 0/16 | Neutrophil count decreased: Affected/At Risk (%): (0%) | Nocturia: # Events: 0 | Nocturia: Affected/At Risk: 0/16 | Nocturia: Affected/At Risk (%): (0%) | Non-cardiac chest pain: # Events: 3 | Non-cardiac chest pain: Affected/At Risk: 3/16 | Non-cardiac chest pain: Affected/At Risk (%): (18.75%) | Obesity: # Events: 0 | Obesity: Affected/At Risk: 0/16 | Obesity: Affected/At Risk (%): (0%) | Oedema peripheral: # Events: 5 | Oedema peripheral: Affected/At Risk: 4/16 | Oedema peripheral: Affected/At Risk (%): (25%)
